Measurements from US20190177421A1, “CHIMERIC ANTIGEN RECEPTORS AND METHODS FOR USE” (Poseida Therapeutics, Inc., priority 2016, published 2019).
Like-named read-outs stand apart in the source and are kept apart here.

Columns and labels:
human primary T cells = test: In vitro CARTyrin surface expression in T cells; assay type: cell-based; conditions: following lentiviral transduction of human primary T cells
Description: Characterization further assays correlations with functionality.

tumor = test: In vivo tumor challenge study in mice
Description: FIG. 6 is a schematic diagram depicting an in vivo tumor challenge study timeline using the A08 CARTyrin in mice.
FIG. 6 depicts the treatment schedule for an in vivo study in mice using the A08 CARTyrin. […] FIG. 8 provides a series of photographs further illustrating tumor burden in control animal as well as those treated with P-BCMA-101.

cells [1] = test: Amount of AP1903 needed in vitro for effective signaling of cells; assay type: cell-based; conditions: calculated with 1600 Da MW
Procedure: The fixed dose of AP1903 for injection used, for example, may be 0.4 mg/kg intravenously infused over 2 hours. The amount of AP1903 needed in vitro for effective signaling of cells is 10-100 nM (1600 Da MW). This equates to 16-160 μg/L or 0.016-1.6 μg/kg (1.6-160 μg/kg). Doses up to 1 mg/kg were well-tolerated in the Phase I study of AP1903 described above. Therefore, 0.4 mg/kg may be a safe and effective dose of AP1903 for this Phase I study in combination with the therapeutic cells.

[2] = test system: human pan T-cells containing the iC9 construct; test: iC9 safety switch test: viability by flow cytometry using 7-AAD; assay type: cell-based; conditions: 24 hours incubation, 0-1000 nM tested, cells with iC9 safety switch
Description: Human pan T-cells were nucleofected using an Amaxa 4D nucleofector with one of four piggyBac transposons. Modified T cells receiving the “mock” condition were nucleofected with an empty piggyBac transposon. Modified T cells received either a piggyBac transposon containing a therapeutic agent alone (a sequence encoding a CARTyrin) or a piggyBac transposon containing an integrated iC9 sequence and a therapeutic agent (a sequence encoding a CARTyrin).
To test the iC9 safety switch, each of the four modified T cells were incubated for 24 hours with 0, 0.1 nM, 1 nM, 10 nM, 100 nM or 1000 nM AP1903 (an induction agent for […]). Viability was assessed by flow cytometry using 7-aminoactinomycin D (7-AAD), a fluorescent intercalator, as a marker for cells undergoing apoptosis.

cells [3] = conditions: cited from earlier work
[4] = cited from earlier work

Procedure for BCMA+ tumor cells: Functionality of CARTyrin-expressing T cells was measured by degranulation against tumor lines.

Compound	surface expression (human primary T cells)	tumor burden assessed by M-protein abundance (tumor; day 21)	tumor burden assessed by M-protein abundance (tumor; day 21, listed as P-BCMA-101)	tumor burden compared to controls (tumor; photographs)	survival (tumor; to day 21) [%]	cytotoxic function (e.g. proliferation) (BCMA+ tumor cells)	amount needed for effective signaling, equated to dose (cells [1]) [µg/kg]	amount needed for effective signaling, equated to mass concentration (cells [1]) [µg/L]	concentration at which apoptosis is induced [2] [nM]	amount needed in vitro for effective signaling of cells (cells [3]) [nM]	plasma level as % of maximal concentration ([4]; 0.5 hours post-dose)	plasma level as % of maximal concentration ([4]; 2 hours post-dose) [%]	plasma level as % of maximal concentration ([4]; 10 hours post-dose) [%]	well-tolerated doses ([4]; Phase I study, IV)	mean Cmax ([4]; single doses infused IV over 2 hours, 0.01-1.0 mg/kg dose range, plasma) [ng/mL]
A08 CARTyrin: anti-BCMA CARTyrin (CAR comprising a Centyrin), SEQ ID NO: 21; P-BCMA-101 encodes the A08 anti-BCMA CARTyrin	high levels of surface expression	no detectable M-protein	not detectable	reduce tumor burden	100	strong cytotoxic function									
CC[C@H](C(=O)N1CCCC[C@H]1C(=O)O[C@H](CCc1ccc(OC)c(OC)c1)c1cccc(OCC(=O)NCCNC(=O)COc2cccc([C@@H](CCc3ccc(OC)c(OC)c3)OC(=O)[C@@H]3CCCCN3C(=O)[C@@H](CC)c3cc(OC)c(OC)c(OC)c3)c2)c1)c1cc(OC)c(OC)c(OC)c1 (relative stereo) [AP1903, 2-Piperidinecarboxylic acid, 1-[(2S)-1-oxo-2-(3,4,5-trimethoxyphenyl)butyl]-, 1,2-ethanediylbis[imino(2-oxo-2,1-ethanediyl)oxy-3,1-phenylene[(1R)-3-(3,4-dimethoxyphenyl)propylidene]]ester, [2S-[1(R*),2R*[S*[S*[1(R*),2R*]]]]]-(9Cl)]							0.016 to 1.6	16 to 160	≤ 0.1	10 to 100	approximately 18%	~7	~1	up to 1 mg/kg	10 to 1275
